Measurements taken from patent publication US20260285850A1, “SUBSTITUTED OXAZOLIDINONES AND IMIDAZOLINONES AS HERBICIDES” (FMC CORPORATION, priority 2023, published 2026).

How the values were obtained:
Assay type in all cases: in vivo
corn (Zea mays) [1] = assay: Test A preemergence soil spray, visual injury rating 0-100; details: 10 days
In short: (§1)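 Preemergence directed soil spray or postemergence spray (2-10 cm, 1-2 leaf); loam/sand mix; compound in non-phytotoxic solvent + surfactant. Greenhouse, 10 d. Visual injury vs untreated, 0 = none, 100 = complete control.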

[2] = test system: blackgrass (Alopecurus myosuroides); assay: as above; details: 10 days
In short: as §1

[3] = test system: oat, wild (wild oat, Avena fatua); assay: as above; details: 10 days
In short: as §1

kochia (Bassia scoparia) [4] = assay: as above; details: 10 days
In short: as §1

[5] = test system: green foxtail (Setaria viridis); assay: as above; details: 10 days
In short: as §1

[6] = test system: barnyardgrass (Echinochloa crus-galli); assay: as above; details: 10 days
In short: as §1

soybean (Glycine max) [7] = assay: as above; details: 10 days
In short: as §1

[8] = test system: ryegrass, Italian (italian ryegrass, Lolium multiflorum); assay: as above; details: 10 days
In short: as §1

[9] = test system: wheat (Triticum aestivum); assay: as above; details: 10 days
In short: as §1

[10] = test system: ragweed (common ragweed, Ambrosia artemisiifolia); assay: as above; details: 10 days
In short: as §1

[11] = test system: barnyardgrass (Echinochloa crusgalli); assay: Test B flooded paddy test, visual plant response rating 0-100; details: 250 g ai/ha, Flood, applied to paddy water, evaluated after 13 days
In short: (§2)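 Greenhouse, 13 d. Seedlings at 2-leaf stage, pots flooded to 3 cm, compound delivered into floodwater, water level held constant. Evaluated visually relative to controls.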

rice (Oryza sativa) = assay: as above; details: 250 g ai/ha, Flood, applied to paddy water, evaluated after 13 days
In short: as §2

[12] = test system: ducksalad (Heteranthera limosa); assay: as above; details: 250 g ai/ha, Flood, applied to paddy water, evaluated after 13 days
In short: as §2

[13] = test system: sedge, umbrella (small-flower umbrella sedge, Cyperus difformis); assay: as above; details: 250 g ai/ha, Flood, applied to paddy water, evaluated after 13 days
In short: as §2

corn (Zea mays) [14] = assay: Test A postemergence application, visual injury rating 0-100
In short: as §1

[15] = test system: blackgrass (Alopecurus myosuroides); assay: as above
In short: as §1

[16] = test system: horseweed (Erigeron canadensis); assay: as above
In short: as §1

[17] = test system: oat, wild (wild oat, Avena fatua); assay: as above
In short: as §1

kochia (Bassia scoparia) [18] = assay: as above
In short: as §1

[19] = test system: green foxtail (Setaria viridis); assay: as above
In short: as §1

[20] = test system: barnyardgrass (Echinochloa crus-galli); assay: as above
In short: as §1

[21] = test system: palmer (palmer amaranth, palmer pigweed, Amaranthus palmeri); assay: as above
In short: as §1

soybean (Glycine max) [22] = assay: as above
In short: as §1

[23] = test system: ryegrass, Italian (italian ryegrass, Lolium multiflorum); assay: as above
In short: as §1

[24] = test system: galium (catchweed bedstraw, Galium aparine); assay: as above
In short: as §1

[25] = test system: wheat (Triticum aestivum); assay: as above
In short: as §1

[26] = test system: ragweed (common ragweed, Ambrosia artemisiifolia); assay: as above
In short: as §1

[27] = 62 g ai/ha, 0 = no effect, 100 = complete control
[28] = 62 g ai/ha, postemergence, 10 days, 0 = no effect, 100 = complete control
[29] = Postemergence, 16 g ai/ha, greenhouse 10 days, 0 no effect, 100 complete control

With `CC1(C(=O)NC2CC(C(=O)O)C2)CN(c2cc(F)cc(Cl)c2)C(=O)O1` (racemic) [Compound 139] the “Corn plant response rating” value (corn (Zea mays) [1]; 16 g ai/ha, 0 to 100 scale) was 0, the “Corn plant response rating (0-100)” value (corn (Zea mays) [1]; [27]) was 90 and the “Blackgrass plant response rating” value ([2]; 16 g ai/ha, 0 to 100 scale) was 20. For the same compound, the “Blackgrass plant response rating (0-100)” value [2, 27] was 80, the “Oat, Wild plant response rating” value ([3]; 16 g ai/ha, 0 to 100 scale) was 20 and the “Oat, Wild plant response rating (0-100)” value [3, 27] was 80. For the same compound, the “Kochia plant response rating” value (kochia (Bassia scoparia) [4]; 16 g ai/ha, 0 to 100 scale) was 0, the “Kochia plant response rating (0-100)” value (kochia (Bassia scoparia) [4]; [27]) was 90 and the “Foxtail, Green plant response rating” value ([5]; 16 g ai/ha, 0 to 100 scale) was 30. For the same compound, the “Foxtail, Green plant response rating (0-100)” value [5, 27] was 90, the “Barnyardgrass plant response rating” value ([6]; 16 g ai/ha, 0 to 100 scale) was 10 and the “Barnyardgrass plant response rating (0-100)” value [6, 27] was 70. For the same compound, the “Soybean plant response rating” value (soybean (Glycine max) [7]; 16 g ai/ha, 0 to 100 scale) was 0, the “Soybean plant response rating (0-100)” value (soybean (Glycine max) [7]; [27]) was 0 and the “Ryegrass, Italian plant response rating” value ([8]; 16 g ai/ha, 0 to 100 scale) was 30. The “Ryegrass, Italian plant response rating (0-100)” value [8, 27] was 90, the “Wheat plant response rating” value ([9]; 16 g ai/ha, 0 to 100 scale) was 90 and the “Wheat plant response rating (0-100)” value [9, 27] was 90. For the same compound, the “Ragweed plant response rating” value ([10]; 16 g ai/ha, 0 to 100 scale) was 0, the “Ragweed plant response rating (0-100)” value [10, 27] was 0 and the “Plant response rating, Barnyardgrass (0 to 100 scale, 0 is no effect and 100 is complete control)” value [11] was 0. The “Plant response rating, Rice (0 to 100 scale, 0 is no effect and 100 is complete control)” value (rice (Oryza sativa)) was 0, the “Plant response rating, Ducksalad (0 to 100 scale, 0 is no effect and 100 is complete control)” value [12] was 0 and the “Plant response rating, Sedge, Umbrella (0 to 100 scale, 0 is no effect and 100 is complete control)” value [13] was 0. The “Corn plant response rating (0-100)” value (corn (Zea mays) [14]; [28]) was 100, the “Corn plant response rating (0 to 100 scale)” value (corn (Zea mays) [14]; [29]) was 100 and the “Blackgrass plant response rating (0-100)” value [15, 28] was 100. For the same compound, the “Blackgrass plant response rating (0 to 100 scale)” value [15, 29] was 90, the “Horseweed plant response rating (0-100)” value [16, 28] was 50 and the “Horseweed plant response rating (0 to 100 scale)” value [16, 29] was 0. For the same compound, the “Oat, Wild plant response rating (0-100)” value [17, 28] was 90, the “Oat, Wild plant response rating (0 to 100 scale)” value [17, 29] was 70 and the “Kochia plant response rating (0-100)” value (kochia (Bassia scoparia) [18]; [28]) was 90. For the same compound, the “Kochia plant response rating (0 to 100 scale)” value (kochia (Bassia scoparia) [18]; [29]) was 70, the “Foxtail, Green plant response rating (0-100)” value [19, 28] was 90 and the “Foxtail, Green plant response rating (0 to 100 scale)” value [19, 29] was 90. The “Barnyardgrass plant response rating (0-100)” value [20, 28] was 100, the “Barnyardgrass plant response rating (0 to 100 scale)” value [20, 29] was 90 and the “Pigweed, Palmer plant response rating (0-100)” value [21, 28] was 70. For the same compound, the “Pigweed, Palmer plant response rating (0 to 100 scale)” value [21, 29] was 20, the “Soybean plant response rating (0-100)” value (soybean (Glycine max) [22]; [28]) was 60 and the “Soybean plant response rating (0 to 100 scale)” value (soybean (Glycine max) [22]; [29]) was 60. The “Ryegrass, Italian plant response rating (0-100)” value [23, 28] was 70, the “Ryegrass, Italian plant response rating (0 to 100 scale)” value [23, 29] was 30 and the “Galium plant response rating (0-100)” value [24, 28] was 80. The “Galium plant response rating (0 to 100 scale)” value [24, 29] was 50, the “Wheat plant response rating (0-100)” value [25, 28] was 90 and the “Wheat plant response rating (0 to 100 scale)” value [25, 29] was 90. For the same compound, the “Ragweed plant response rating (0-100)” value [26, 28] was 40 and the “Ragweed plant response rating (0 to 100 scale)” value [26, 29] was 40.
